The source of these data is US9433601B2, “Chewing gum compositions comprising cannabinoids” (Stichting Sanammad, priority 2008, dated 2016).

SMILES strings stand for the structures.

The data set is described as follows: Degradation of THC during preparation of the chewing gum (extraction and HPLC). Type of data set: physicochemical. As to conditions: gum base heated till 90° C.; main breakdown product dihydrocannabinol. The protocol: Samples were prepared by putting one gum in a 10.0 ml glass laboratory tube. 5.00 ml ethanol was added and the tube was shaken 3 times with a 5 minute interval. Then 5.00 ml mobile phase (acetonitrile: H2O+0.1% formic acid) was added. The tube was shaken and the gum was mashed with a Pasteur pipette. Then the solution was shaken again and the sample was filtered through a 0.2 micrometer filter. This is the impurity solution. An assay solution was prepared by diluting the impurity solution 100 times with mobile phase. The calculated amount of THC is based upon comparison with a reference solution with an exactly known amount of THC. Purities are calculated as peak area/sum of area's*100%. Impurities present in the placebo are not considered and known impurities are corrected with known response factors.

On to `CCCCCc1cc(O)c2c(c1)OC(C)(C)[C@@H]1CCC(C)=C[C@@H]21` [THC, (−)-(6aR,10aR)-6,6,9-trimethyl-3-pentyl-6a,7,8,10a-tetrahydro-6H-benzo[c]chromen-1-ol], for which the “degradation of THC during the preparation of the chewing gum” value is reported as “only a slight degradation”.
